A value given as a limit tells only on which side of the number the result lay.

The target of this assay is T1, hFXR (Homo sapiens, UniProt Q96RI1).
T1 construct: expressed in transfected cells; host or cells: CV-1 cells
T1 sequence (Q96RI1 1-486): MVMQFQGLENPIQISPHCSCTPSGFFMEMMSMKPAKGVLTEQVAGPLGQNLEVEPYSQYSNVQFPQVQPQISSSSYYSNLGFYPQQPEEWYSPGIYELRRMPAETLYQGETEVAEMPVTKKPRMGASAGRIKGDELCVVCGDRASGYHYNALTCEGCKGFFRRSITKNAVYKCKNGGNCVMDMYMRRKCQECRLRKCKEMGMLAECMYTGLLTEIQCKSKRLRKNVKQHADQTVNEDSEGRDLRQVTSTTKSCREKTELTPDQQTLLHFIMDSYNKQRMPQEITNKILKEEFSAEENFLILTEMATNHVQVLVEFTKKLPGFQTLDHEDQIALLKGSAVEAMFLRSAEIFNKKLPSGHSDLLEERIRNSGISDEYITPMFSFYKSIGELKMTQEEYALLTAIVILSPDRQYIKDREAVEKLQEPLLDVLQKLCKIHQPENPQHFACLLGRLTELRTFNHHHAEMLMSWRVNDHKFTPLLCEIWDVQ
T1 sequence (P19793 1-462 partner): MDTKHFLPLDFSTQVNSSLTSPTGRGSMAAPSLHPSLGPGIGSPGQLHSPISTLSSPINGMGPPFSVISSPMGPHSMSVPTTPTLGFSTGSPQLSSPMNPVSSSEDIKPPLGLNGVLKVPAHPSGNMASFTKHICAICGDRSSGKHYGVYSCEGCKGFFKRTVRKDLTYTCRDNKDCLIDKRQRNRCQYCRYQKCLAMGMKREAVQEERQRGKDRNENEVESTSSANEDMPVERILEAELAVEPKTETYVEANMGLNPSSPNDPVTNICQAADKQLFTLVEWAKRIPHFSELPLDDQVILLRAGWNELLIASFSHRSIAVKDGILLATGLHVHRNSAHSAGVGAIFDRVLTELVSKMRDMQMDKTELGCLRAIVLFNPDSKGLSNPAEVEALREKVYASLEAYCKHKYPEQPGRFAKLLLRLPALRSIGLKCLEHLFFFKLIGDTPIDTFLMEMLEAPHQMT
In words: In Vitro FXR Assay (TK): TK-ECRE-luc reporter in transfected CV-1 cells. In kind it is cell-based. The following applies: 18 hrs incubation, luminescence. The gist of the method: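 Luminescence from a TK-ECRE-luc reporter was read after 18 h of compound exposure in CV-1 cells. These cells were grown in charcoal-stripped FBS medium and transiently transfected with hFXR, hRXR and YFP expression plasmids.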
By EC50 is commonly meant the concentration needed to bring the measured effect to its halfway point. A higher EC50 goes with a need for much substance. For the compound `COc1ncc([C@H]2CC[C@H](CN(c3cc(-c4cnn(C(C)C)c4)ccn3)C(=O)[C@H]3CC[C@H](OC(=O)N4CC(N(C)C)C4)CC3)CC2)cc1C` [Compound 1.04, trans-4-((4-(1-Isopropyl-1H-pyrazol-4-yl)pyridin-2-yl)(((trans)-4-(6-methoxy-5-methylpyridin-3-yl)cyclohexyl)methyl)carbamoyl) cyclohexyl 3-(dimethylamino)azetidine-1-carboxylate], the EC50 was no more than 0.05 µM.

On to `COc1ccc(C23CCC(CN(c4cc(-c5cnn(C(C)C)c5)ccn4)C(=O)[C@H]4CC[C@H](OC(=O)N5CCOCC5)CC4)(CC2)CC3)cc1C` [Compound 4.14, 4-((4-(1-Isopropyl-1H-pyrazol-4-yl)pyridin-2-yl)((4-(4-methoxy-3-methylphenyl)bicyclo [2.2.2]octan-1-yl)methyl)carbamoyl)cyclohexyl morpholine-trans-4-carboxylate], for which the EC50 was no more than 0.05 µM.

`COc1ccc([C@H]2CC[C@H](CN(c3cccc(-c4cnn(C(C)C)c4)c3)C(=O)[C@H]3CC[C@H](CNC(=O)OC(C)C)CC3)CC2)cc1C` [Compound 12.05, Isopropyl (((trans)-4-((3-(1-isopropyl-1H-pyrazol-4-yl)phenyl)(((trans)-4-(4-methoxy-3-methylphenyl)cyclohexyl)methyl)carbamoyl)cyclohexyl)methyl)car-bamate] gave an EC50 of 0.05 to 1 µM.

As for `COc1ccc([C@H]2CC[C@H](CN(c3cc(-c4cnc(C(C)C)s4)ccn3)C(=O)[C@H]3CC[C@H](OC(=O)N4CCN(C)CC4)CC3)CC2)cc1C` [Compound 2.40, trans-4-((4-(2-Isopropylthiazol-5-yl)pyridin-2-yl)((trans-4-(4-methoxy-3-methylphenyl)cyclohexyl)methyl)carbamoyl)cyclohexyl 4-methylpiperazine-1-carboxylate], the EC50 was no more than 0.05 µM.

Turning to `COc1ccc([C@H]2CC[C@H](CN(c3cc(-c4cnn(C(C)C)c4)ccn3)C(=O)[C@H]3CC[C@H](OC(=O)NC[C@H](F)CO)CC3)CC2)cc1C` [Compound 2.30, trans-4-((4-(1-Isopropyl-1H-pyrazol-4-yl)pyridin-2-yl)(((trans)-4-(4-methoxy-3-methylphenyl)cyclohexyl)methyl)carbamoyl) cyclohexyl((S)-2-fluoro-3-hydroxypropyl)carbamate], the EC50 was no more than 0.05 µM.

With `COc1ccc([C@H]2CC[C@H](CN(c3cccc(-c4cnn(C(C)C)c4)c3)C(=O)[C@H]3CC[C@H](NC(=O)C4CC(=O)C4)CC3)CC2)cc1C` [Compound 14.01, trans-N-(3-(1-Isopropyl-1H-pyrazol-4-yl)phenyl)-N-((trans-4-(4-methoxy-3-methylphenyl)cyclohexyl)methyl)-4-(3-oxocyclobutanecarboxamido)cyclo-hexanecarboxamide], the EC50 was no more than 0.05 µM.

With `COc1ccc([C@H]2CC[C@H](CN(c3cccc(-c4cnn(C(C)C)c4)c3)C(=O)[C@H]3CC[C@H](CNS(=O)(=O)C(C)C)CC3)CC2)cc1C` [Compound 12.04, (trans)-N-(3-(1-Isopropyl-1H-pyrazol-4-yl)phenyl)-N-(((trans)-4-(4-methoxy-3-methylphenyl)cyclohexyl)methyl)-4-((1-methylethylsulfonamido)methyl)cy-clohexanecarboxamide], the EC50 was 0.05 to 1 µM.

Compound `COc1ccc([C@H]2CC[C@H](CN(c3cc(-c4cc(C5CC5)on4)ccn3)C(=O)[C@H]3CC[C@H](OC(=O)N4CC(O)C4)CC3)CC2)cc1C` [Compound 2.09, trans-4-((4-(5-Cyclopropylisoxazol-3-yl)pyridin-2-yl)((trans-4-(4-methoxy-3-methylphenyl)cyclohexyl)methyl)carbamoyl)cyclohexyl 3-hydroxyazetidine-1-carboxylate] yielded a 50% effective concentration (EC50) of no more than 0.05 µM.

`COc1ccc([C@H]2CC[C@H](CN(c3cc(-c4cnn(C(C)C)c4)ccn3)C(=O)[C@H]3CC[C@H](OC(=O)NCC(C)(C)CO)CC3)CC2)cc1C` [Compound 2.20, trans-4-((4-(1-Isopropyl-1H-pyrazol-4-yl)pyridin-2-yl) ((trans-4-(4-methoxy-3-methylphenyl)cyclohexyl)methyl)carbamoyl) cyclohexyl(3-hydroxy-2,2-dimethylpropyl)carbamate]: the EC50 was no more than 0.05 µM.

In turn, `COc1ccc([C@H]2CC[C@H](CN(c3cccc(-c4cnn(C(C)C)c4)c3)C(=O)[C@H]3CC[C@H](NC(=O)OC4CN(C)C4)CC3)CC2)cc1C` [Compound 6.07, 1-Methylazetidin-3-yl (trans-4-((3-(1-isopropyl-1H-pyrazol-4-yl)phenyl)((trans-4-(4-methoxy-3-methylphenyl)cyclohexyl)meth-yl)carbamoyl)cyclohexyl)carbamate] registered an EC50 of 0.05 to 1 µM.

`CCOC(=O)N[C@H]1CC[C@H](C(=O)N(CC23CCC(c4ccc(OC)c(C)c4)(CC2)CC3)c2cc(-c3cnn(C(C)C)c3)ccn2)CC1` [Compound 8.01, (trans)-Ethyl (4-((4-(1-isopropyl-1H-pyrazol-4-yl)pyridin-2-yl)((4-(4-methoxy-3-methylphenyl)bicyclo[2.2.2]octan-1-yl)methyl)carbamoyl)cyclohexyl)car-bamate] returned an EC50 of no more than 0.05 µM.

Regarding `COc1ccc([C@H]2CC[C@H](CN(c3cc(-c4cnn(C(C)C)c4)ccn3)C(=O)[C@H]3CC[C@H](OC(=O)NCC(F)(F)CO)CC3)CC2)cc1C` [Compound 2.34, trans-4-((4-(1-Isopropyl-1H-pyrazol-4-yl)pyridin-2-yl)(((trans)-4-(4-methoxy-3-methylphenyl)cyclohexyl)methyl)carbamoyl) cyclohexyl(2,2-difluoro-3-hydroxypropyl)carbamate], the EC50 is no more than 0.05 µM.

In the case of `COc1ccc([C@H]2CC[C@H](CN(c3cccc(-c4cnn(C(C)C)c4)c3)C(=O)[C@H]3CC[C@H](NC(=O)COCCCO)CC3)CC2)cc1C` [Compound 13, trans-4-(2-(3-Hydroxypropoxy)acetamido)-N-(3-(1-isopropyl-1H-pyrazol-4-yl)phenyl)-N-((trans-4-(4-methoxy-3-methylphenyl)cyclohexyl)methyl)cyclohexanecarboxamide], the EC50 is no more than 0.05 µM.

As to `COc1ccc([C@H]2CC[C@H](CN(c3cccc(-c4cnn(C(C)C)c4)c3)C(=O)[C@H]3CC[C@H](OC(=O)NCC(C)(C)O)CC3)CC2)cc1C` [Compound 5.12, trans-4-((3-(1-Isopropyl-1H-pyrazol-4-yl)phenyl)((trans-4-(4-methoxy-3-methylphenyl)cyclohexyl)methyl)carbamoyl)cyclohexyl (2-hydroxy-2-methylpropyl)carbamate], the EC50 is no more than 0.05 µM.

On to `COc1ccc(C23CCC(CN(c4ccc(F)c(-c5cnn(C(C)C)c5)c4)C(=O)[C@H]4CC[C@H](OC(=O)N5CC(CO)C5)CC4)(CC2)CC3)cc1C` [Compound 25.09, 4-((4-Fluoro-3-(1-isopropyl-1H-pyrazol-4-yl)phenyl)((4-(4-methoxy-3-methylphenyl)bicyclo[2.2.2]octan-1-yl)methyl)carbamoyl)cyclohexyl trans-3-(hydroxymethyl)azetidine-1-carboxylate], for which the EC50 was no more than 0.05 µM.

In the case of `COc1ccc([C@H]2CC[C@H](CN(c3cc(-c4coc(C(C)C)n4)ccn3)C(=O)[C@H]3CC[C@H](OC(=O)NCC(C)(C)O)CC3)CC2)cc1C` [Compound 2.26, trans-4-((4-(2-Isopropyloxazol-4-yl)pyridin-2-yl)(((trans)-4-(4-methoxy-3-methylphenyl)cyclohexyl)methyl)carbamoyl)cyclohexyl (2-hydroxy-2-methylpropyl)carbamate], the EC50 was no more than 0.05 µM.

Compound `COc1ccc(C23CCC(CN(c4cc(-c5cnn(C(F)(F)F)c5)ccn4)C(=O)[C@H]4CC[C@H](OC(=O)N5CC(O)C5)CC4)(CC2)CC3)cc1C` [Compound 4.19, 4-(((4-(4-Methoxy-3-methylphenyl)bicyclo [2.2.2]octan-1-yl)methyl) (4-(1-(trifluoromethyl)-1H-pyrazol-4-yl)pyridin-2-yl)carbamoyl) cyclohexyl 3-hydroxyazetidine-trans-1-carboxylate] had an EC50 of no more than 0.05 µM.

For the compound `COc1ccc(C23CCC(CN(c4cc(-c5cnn(C(C)C)c5)ccn4)C(=O)[C@H]4CC[C@H](OC(=O)N5CC(OC)C5)CC4)(CC2)CC3)cc1C` [Compound 4.47, 4-((4-(1-Isopropyl-1H-pyrazol-4-yl)pyridin-2-yl) ((4-(4-methoxy-3-methylphenyl)bicyclo [2.2.2]octan-1-yl)methyl)carbamoyl)(trans-cyclohexyl) 3-methoxyazetidine-1-carboxylate], the EC50 is no more than 0.05 µM.

These data come from patent publication US20220056019A1, “FARNESOID X RECEPTOR AGONISTS AND USES THEREOF” (Metacrine, Inc., priority 2018, published 2022).
